Laboratory results published in patent US5234934A, “Aminopropanol derivatives, process for their preparation and pharmaceutical compositions comprising the same” (priority 1989, dated 1993).
Where two headings read alike, the source gives them in different places.

Experiments:
[1] = acute toxicity test in mice (Litchfield and Wilcoxon); assay type: in vivo, mouse; conditions: mouse, in vivo, po., 14 days observation
Method: (§1) The test for acute toxicity was carried out by using 10 white mice (CFLP strain) (both male and female), weighing 18 to 22 g in each dose group. The compounds of the invention were administered orally in a dose of 20 ml/kg.
(§2) The animals were kept in a plastic box on wood chips in a room of room temperature. They could consume tap water and standard mouse feed ad libitum. The toxicity data were determined by the method of Litchfield and Wilcoxon (Litchfield, J. T., Wilcoxon, F. W.: J. Pharmacol. Exp. Ther. 96, 99/1949/).

[2] = test system: aconitine-induced ECG alterations; assay: animal or person; assay type: in vivo, rat; conditions: for ED50 / change in vivo at 4 mg/kg / change in vivo at 100 mg/kg: Rattus norvegicus; for change in vivo at 4 mg/kg / change in vivo at 100 mg/kg: read-out: Effect % (antiarrhythmic)
Method: The test was carried out by using the modified method of Marmo et al. on rats weighing 160 to 200 g. The animals were narcotised by ethyl uretane (1.2 g/kg ip.). Aconitin was administered intravenously in a dose of 75 /ug/kg in the form of a bolus injection. The ECG alterations were monitored in standard II lead by 5 minutes after the administration of aconitine. The observed alterations were classified into classes 0 to 5. The compounds of the invention were administered 2 minutes or 60 minutes before the parenteral or oral administration of aconitine, respectively. […]
class 1: sometimes an extrasystole occurs class 2: each second one is an extrasystole class 3: extrasystoles in groups class 4: each one is an extrasystole class 5: fibrillation, death
(Marmo, E., DiGiacomo, S., Imperatore, A.: Arzeimittel-Forschung 20, 12/1970/)

nervus ischiadicus = assay: local analgesic effect (Truant d'Amato's method); assay type: in vivo; conditions: for EC50 %: 0.2 ml injected around nervus ischiadicus; for Duration of effect: in a conc. of 0.5%
Method: The tests were carried out according to Truant d'Amato's method. 0.2 ml of test material was injected around the nervus ischiadicus in the middle of femur with a needle of 1 cm length. The criterion of analgesic effect was the lack of the motoric control of foot muscles.
The duration of effect was registered and the 50 percentile effective concentration (EC50) was calculated on the basis of the dose-effect curve. Lidocain was used as comparative material. (Truant, A. P., D'Amato, D.: Acta Chir Scand. 116, 351/1958/)

gastric acid secretion = gastric acid secretion test (Shay); assay type: in vivo, rat; conditions: rats
Method: The test was carried out according to Shay's operational method. […] On the day of the test the pylorus of the animals was bound under ether narcosis. The test compounds were administered orally 3 hours before the operation. The animals of the control group were administered with the carrier only. 4 hours after the operation the stomach was removed, the content thereof was centrifuged and the amount of free acid was determined by titration with 0.1N sodium hydroxide.

[3] = test system: peristalty of stomach and intestines; assay: effect exerted on the peristalty of stomach and intestines (Stickney et al., carbon suspension); assay type: in vivo, mouse; conditions: po., mice; for ED50: Mus musculus, read-out: ED50 (antiperistaltic); for TI (therapeutic index): antiperistaltic
Method: The antiperistaltic effect of the compounds was examined by the method of Stickney et al. on white mice of both sexes, weighing 20 to 25 g. The compounds to be tested were administered per os 60 minutes before the addition of carbon suspension to groups containing 10 mice each. The animals of the control groups were treated at the same time and in the same manner with the carrier only. The mice were killed 10 minutes after the addition of the carbon suspension, and the whole length of the intestines as well as the length of the intestines filled with carbon suspension were measured.

[4] = absorption judged by ED50 per os/ED50 iv; conditions: in vivo
From the text: The compounds of formula I according to the invention can well be absorbed if administered either orally or parenterally.

LD50 po. on rat = conditions: in vivo
[5] = test system: coronary insufficiency caused by vasopressine; assay: antianginal effect on rats (vasopressine coronary insufficiency, Nieschulz); assay type: in vivo, rat; conditions: for ED50: Rattus norvegicus, read-out: ED50 (antianginal)
Method: The test was carried out by using rats weighing 180 to 220 g. The animals were narcotised by chloralose urethane (70 to 700 mg/kg ip.). The ECG alterations were registered in standard II lead with the aid of needle electrodes. The antianginal effect was measured with Nieschultz's method. The coronary insufficiency was caused by vasopressine (1 NE/kg, iv.). The size of the T-wave was measured before and after administration of vasopressine in both the control and test groups. The compounds of the invention were administered 2 minutes before the administration of vasopressine. (Nieschulz, O., Popendiker, K., Hoffmann, I.: Arzneimittel-Forschung 5, 680/1955/)

hexobarbital narcosis = assay: narcosis potentiating effect (hexobarbital sleeping time); conditions: for ED50: Mus musculus, po, read-out: ED50 (narcosis potentiation); for TI (therapeutic index): narcosis potentiation
Method: The narcosis potentiating effect of the compounds of the invention were examined on white mice, with 6 animals in each group. The mice were administered orally with the compounds of the invention, then both the control and the test groups were intravenously added 40 mg/kg of hexobarbital in order to make the mice sleep (Kaergard et al.).

white mice (CFLP strain) = assay: acute toxicity test in mice (Litchfield and Wilcoxon); assay type: in vivo, mouse; conditions: po., 14 days observation
Method: as §1, §2

beta-adrenergic = conditions: background art; cited from earlier work
blood pressure = conditions: background art; cited from earlier work
level of lipids = conditions: background art; cited from earlier work
[6] = iv, read-out: ED50 iv. (antiarrhythmic)
[7] = po, read-out: ED50 (antiarrhythmic, per os)
[8] = Rattus norvegicus, dose 200 mg/kg po., read-out: Inhibition of free acid, %
[9] = iv., rats, vasopressine 1 NE/kg iv

CC(C)N(CC(O)CO/N=C1\CCCC\C1=C/c1ccccc1)C(C)C (racemic) [Example 1, R,S-2-(E)-Phenylmethylene-1-(E)-{3-[bis-(1-methylethyl)-amino]-2-hydroxy-propoxyimino}-cyclohexane] showed an LD50 at 336 h [1] of 400 mg/kg, an ED50 ([2]; iv, read-out: ED50 iv) of 1.21 mg/kg and an ED50 [2, 6] of 1.21 mg/kg. For the same compound, the change in vivo at 4 mg/kg ([2]; iv) was -89.5%, the ED50 [2, 7] was 27.3 mg/kg and the ED50 ([2]; po, read-out: ED50 per os) was 24.4 mg/kg. For the same compound, the change in vivo at 100 mg/kg ([2]; po) was -100%, the “effect compared to the control compounds regarding the absolute dose” value ([2]; administered orally) was “multiplied effect compared to the control compounds” and the “TI (therapeutic index)” value ([2]; antiarrhythmic, per os, rat) was 64.6. For the same compound, the “therapeutical activity range, times higher than that of Quinidine” value ([2]; per os, rats, vs Quinidine) was 5.8 times, the EC50 % (nervus ischiadicus) was 0.04% and the inhibition in vivo at 200 mg/kg (gastric acid secretion; [8]) was 70%. For the same compound, the ED50 [3] was about 80 mg/kg, the “TI (therapeutic index)” value [3] was “about 5” and the absorption ratio (ED50 po / ED50 iv) [4] was 20.6. The absorption ([4]; po) was “much better than that of the cited compound of formula (e)” and the LD50 (LD50 po. on rat) was 1760 mg/kg.

For OC(CO/N=C1\CCCC\C1=C/c1ccccc1)CN1CCCCCC1 (racemic) [Example 10, R,S-2-(E)-Phenylmethylene-1-(E)-(3-hexamethylene-imino-2-hydroxypropoxyimino)-cyclohexane], the LD50 at 336 h [1] was 900 mg/kg, the change in vivo at 4 mg/kg ([2]; iv) was -47% and the ED50 [5, 9] was 1.62 mg/kg.

CN(C)CCCNCC(O)CO/N=C1\CCCC\C1=C/c1ccccc1 (racemic) [Example 11, R,S-2-(E)-Phenylmethylene-1-(E)-[3-(3-dimethylamino-1-propylamino)-2-hydroxy-propoxyimino]-cyclohexane] gave an LD50 at 336 h [1] of over 1000 mg/kg, an ED50 [5, 9] of 0.93 mg/kg and an inhibition in vivo at 200 mg/kg (gastric acid secretion; [8]) of 62%. For the same compound, the ED50 [3] was 100 mg/kg and the “TI (therapeutic index)” value [3] was 10.

CN1CCN(CC(O)CO/N=C2\CCCC\C2=C/c2c(Cl)cccc2Cl)CC1 (racemic) [Example 36, R,S-2-(E)-(2,6-Dichlorophenyl-methylene)-1-(E)-[3-(4-methyl-1-piperazinyl)-2-hydroxy-propoxyimino]-cyclohexane] showed an LD50 at 336 h [1] of 700 mg/kg, an ED50 [5, 9] of 1.28 mg/kg and an ED50 [3] of about 100 mg/kg. The “TI (therapeutic index)” value [3] was “about 7”, the ED50 (hexobarbital narcosis) was 14 mg/kg and the “TI (therapeutic index)” value (hexobarbital narcosis; mice, po.) was 50.

With CCCNCC(O)CO/N=C1\CCCCC\C1=C/c1ccc(OC)cc1 (racemic) [Example 43, R,S-2-(E)-(4'-Methoxyphenyl-methylene)-1-(E)-(3-propylamino-2-hydroxy-propoxyimino)-cycloheptane] the LD50 at 336 h [1] was 800 mg/kg, the ED50 [5, 9] was about 2 mg/kg and the inhibition in vivo at 160 mg/kg (gastric acid secretion; Rattus norvegicus, dose 160 mg/kg po., read-out: Inhibition of free acid, %) was 32%. For the same compound, the ED50 (hexobarbital narcosis) was 50 mg/kg and the “TI (therapeutic index)” value (hexobarbital narcosis; mice, po.) was 16.

For CCN(CC)CC(O)CO/N=C1\CCCCC\C1=C/c1ccc(OC)cc1 (racemic) [Example 44, R,S-2-(E)-(4-Methoxyphenyl-methylene)-1-(E)-(3-diethylamino-2-hydroxy-propoxyimino)-cycloheptane], the LD50 at 336 h [1] was 600 mg/kg and the ED50 [5, 9] was 1.93 mg/kg.

Compound CC(C)NCC(O)CO/N=C1\CCCCC1Cc1ccc(Cl)cc1 (racemic) [Example 47, R,S-2-(E)-(4-Chlorophenyl-methyl)-1-(E)-[3-(1-methylethyl-amino)-2-hydroxy-propoxyimino]-cyclohexane] has an LD50 at 336 h [1] of 700 mg/kg, an ED50 [5, 9] of 1.29 mg/kg and an EC50 % (nervus ischiadicus) of 0.18%. For the same compound, the Duration of effect (nervus ischiadicus) was 93 min.

Work on CCCN(CCC)CC(O)CO/N=C1\CCCCC\C1=C/c1ccc(OC)cc1 (racemic) [Example 51, R,S-2-(E)-(4-Methoxyphenyl-methylene)-1-(E)-(3-dipropylamino-2-hydroxy-propoxyimino)-cycloheptane] yielded an LD50 at 336 h [1] of 100 to 500 mg/kg, an ED50 [5, 9] of 0.43 mg/kg and an EC50 % (nervus ischiadicus) of 0.28%. For the same compound, the Duration of effect (nervus ischiadicus) was 103 min.

With OC(CO/N=C1\CCCC\C1=C/c1ccccc1)CN1CC=C(c2ccccc2)CC1 (racemic) [Example 55, R,S-2-(E)-Phenylmethylene-1-(E)-[3-(4-phenyl-1,2,3,6-tetrahydro)-1-pyridinyl]-2-hydroxy-propoxyimino-cyclohexane] the LD50 at 336 h [1] was over 1000 mg/kg and the ED50 ([5]; iv) was 1.77 mg/kg.

Compound CC(C)CNCC(O)CON=C1CCCCC1=Cc1cccc(Cl)c1 (stereo not shown) [Example 25, R,S-2-(E)-3-Chlorophenylmethylene-1-(E)-[3-(2-methylpropyl-amino)-2-hydroxy-propoxyimino]-cyclohexane] has an LD50 (white mice (CFLP strain)) of 900 mg/kg.

In the case of CC(C)NCC(O)CO/N=C1\CCCC\C1=C/c1ccc(Cl)cc1 (stereo not shown) [Example 26, R,S-2-(E)-(4-Chlorophenyl-methylene)-1-(E)-[3-(1-methylethylamino)-2'-hydroxy-propoxyimino]-cyclohexane], the LD50 (white mice (CFLP strain)) is reported as “more than 1000 mg/kg”, the “ED50 (antianginal)” value [5, 9] is reported as “about 2.0 mg/kg” and the EC50 % (nervus ischiadicus) is reported as 0.22%. The Duration of effect (nervus ischiadicus) was 49 min, the “Inhibition of free acid, %” value (gastric acid secretion; dose 100 mg/kg po.) was 66% and the “Inhibition of free acid, %” value (gastric acid secretion; dose 200 mg/kg po.) was 92%. For the same compound, the “TI (therapeutic index)” value (hexobarbital narcosis; mice, po.) was over 7 and the “ED50 (narcosis potentiation)” value (hexobarbital narcosis; po., mice, hexobarbital 40 mg/kg iv) was 140 mg/kg.

With CCCNCC(O)CO/N=C1\CCCC\C1=C/c1ccc(Cl)cc1 (stereo not shown) [Example 46, R,S-2-(E)-(4-Chlorophenyl-methylene)-1-(E)-(3-propylamino-2-hydroxypropoxyimino)-cyclohexane] the LD50 (white mice (CFLP strain)) was “more than 1000 mg/kg”, the EC50 % (nervus ischiadicus) was 0.19% and the Duration of effect (nervus ischiadicus) was 81 min.

In the case of CC(=NOCC(O)CNC(C)(C)C)C1CC1 (stereo not shown) [Falintolol], the beta-adrenergic blocking effect (beta-adrenergic) is listed as “exhibits beta-adrenergic blocking activity”.

For CC(C)(C)NCC(O)CON=C1c2ccccc2-c2ccccc21 (stereo not shown) [IPS-339], the beta-adrenergic blocking effect (beta-adrenergic) is listed as “exhibits beta-adrenergic blocking effect”.

In the case of COc1cccc(C=NOCC(O)CN2CCN(c3ccccc3OC)CC2)c1 (stereo not shown) [Paradoxime], the “blood pressure reducing activity” value (blood pressure) is listed as “shows blood pressure reducing activity”.

For OC(CON=Cc1ccc(Cl)cc1)CN1CCN(c2ccccc2Cl)CC1 (stereo not shown) [Peraclopone], the “reduction of the level of lipids” value (level of lipids) is given as “reduces the level of lipids”.

Compound CC(Cc1ccccc1)NCCC(c1ccccc1)c1ccccc1 (stereo not shown) [Prenilamine, reference compound] has an ED50 ([5]; iv) of 6.5 mg/kg.

C=C[C@H]1C[N@@]2CC[C@H]1C[C@@H]2[C@@H](O)c1ccnc2ccc(OC)cc12 [Quinidine, reference compound] gave an ED50 [2, 6] of 9.85 mg/kg, a change in vivo at 4 mg/kg ([2]; iv) of -29% and an ED50 [2, 7] of about 100 mg/kg. It also gave a change in vivo at 100 mg/kg ([2]; po) of -52% and an LD50 (LD50 po. on rat) of 1130 mg/kg.

In the case of “R,S-2-(E)-Chlorophenylmethylene-1-(E)-[3-(4-phenyl-1-piperazinyl)-2-hydroxy-propoxyimino]-cyclohexane [Example 24]”, the LD50 (white mice (CFLP strain)) is reported as “more than 1000 mg/kg”, the “TI (therapeutic index)” value [3] is reported as “about 7” and the “ED50 (antiperistaltic)” value [3] is reported as “about 150 mg/kg”.
